Drawing on patent publication US20240166652A1, “MODULATORS OF THE INTEGRATED STRESS PATHWAY” (Calico Life Sciences LLC, priority 2017, published 2024), this text covers EC50 for 13 molecules.

Bounds are passed on as bounds.

The subject of the experiment is ATF4 luciferase reporter in HEK293T cells. The experiment can be described thus: ATF4-Luc assay (ATF4 luciferase reporter, tunicamycin-treated HEK293T cells). As to conditions: Homo sapiens, HEK-293T; HEK293T cells carrying the ATF4 luciferase reporter, 1 μg/mL tunicamycin, 7 hours. It is filed as cell-based, human. In general terms: In a reporter assay the amount or activity of a reporter protein is the signal.
As usually defined, the EC50 is the concentration that produces a half-maximal response. Turning to `O=C(COc1cc(F)c2cn[nH]c2c1)NC12CCC(NC(=O)COc3cc(F)c4cn[nH]c4c3)(CC1)[C@@H](O)C2` [Compound 710, N,N′-[(2S)-2-hydroxybicyclo[2.2.2]octane-1,4-diyl]bis{2-[(4-fluoro-1H-indazol-6-yl)oxy]acetamide}], the EC50 was under 10 nM. To `CN(CCO)C1CC2(NC(=O)COc3ccc(Cl)c(F)c3)CCC1(NC(=O)COc1ccc(Cl)c(F)c1)CC2` (stereo not shown) [Compound 711, N,N′-{2-[(2-hydroxyethyl)(methyl)amino]bicyclo[2.2.2]octane-1,4-diyl}bis[2-(4-chloro-3-fluorophenoxy)acetamide]] belongs under 10 nM; to `CNC(CC(=O)NC12CCC(NC(=O)COc3ccc(Cl)c(F)c3)(CC1)[C@@H](O)C2)c1ccc(Cl)cc1` (stereo partly drawn) [Compound 712, N-{(3S)-4-[2-(4-chloro-3-fluorophenoxy)acetamido]-3-hydroxybicyclo[2.2.2]octan-1-yl}-3-(4-chlorophenyl)-3-(methylamino)propanamide], 500 to 2000 nM. In the case of `O=C(CC(NC1COC1)c1ccc(Cl)cc1)NC12CCC(NC(=O)COc3ccc(Cl)c(F)c3)(CC1)[C@@H](O)C2` (stereo partly drawn) [Compound 713, N-{(3S)-4-[2-(4-chloro-3-fluorophenoxy)acetamido]-3-hydroxybicyclo[2.2.2]octan-1-yl}-3-(4-chlorophenyl)-3-[(oxetan-3-yl)amino]propanamide], the EC50 was over 2000 nM. For the molecule `O=C(COc1ccc(Cl)c(F)c1)NC12CCC(NC(=O)COc3ccc(Cl)c(F)c3)(CC1)C(NCC(F)(F)F)C2` (stereo not shown) [Compound 714, N,N′-{2-[(2,2,2-trifluoroethyl)amino]bicyclo[2.2.2]octane-1,4-diyl}bis[2-(4-chloro-3-fluorophenoxy)acetamide]], the concentration giving a half-maximal response (EC50) is 10 to 50 nM. On to `O=C(COc1ccc(Cl)c(F)c1)NC12CCC(NC(=O)COc3ccc(Cl)c(F)c3)(CC1)C(N1CC(F)(F)C1)C2` (stereo not shown) [Compound 715, N,N′-[2-(3,3-difluoroazetidin-1-yl)bicyclo[2.2.2]octane-1,4-diyl]bis[2-(4-chloro-3-fluorophenoxy)acetamide]], for which the 50% effective concentration (EC50) is 10 to 50 nM. Then `COCC1CC2(NC(=O)COc3ccc(Cl)c(F)c3)CCC1(NC(=O)COc1ccc(Cl)c(F)c1)CC2` (stereo not shown) [Compound 716, N,N′-[2-(methoxymethyl)bicyclo[2.2.2]octane-1,4-diyl]bis[2-(4-chloro-3-fluorophenoxy)acetamide]], with 10 to 50 nM; and `O=C(COc1ccc(Cl)c(F)c1)NC12C=C(C(=O)O)C(NC(=O)COc3ccc(Cl)c(F)c3)(CC1)CC2` [Compound 717, 1,4-bis[2-(4-chloro-3-fluorophenoxy)acetamido]bicyclo[2.2.2]oct-2-ene-2-carboxylic Acid], with 50 to 250 nM; and `COC(=O)C1=CC2(NC(=O)COc3ccc(Cl)c(F)c3)CCC1(NC(=O)COc1ccc(Cl)c(F)c1)CC2` [Compound 718, methyl 1,4-bis[2-(4-chloro-3-fluorophenoxy)acetamido]bicyclo[2.2.2]oct-2-ene-2-carboxylate], with under 10 nM. To `O=C(COc1ccc(Cl)c(F)c1)NC12CCC(NC(=O)COc3ccc(Cl)c(F)c3)(CC1)C(N1CC(O)C1)C2` (stereo not shown) [Compound 719, N,N′-[2-(3-hydroxyazetidin-1-yl)bicyclo[2.2.2]octane-1,4-diyl]bis[2-(4-chloro-3-fluorophenoxy)acetamide]] belongs 10 to 50 nM; to `O=C(COc1cc(F)c2cn[nH]c2c1)NC12CCC(NC(=O)COc3ccc(C(F)(F)F)nc3)(CC1)[C@@H](O)C2` [Compound 720], under 10 nM; to `O=C(COc1cc(F)c2cn[nH]c2c1)NC12CCC(NC(=O)COc3ccc(F)cc3)(CC1)[C@@H](O)C2` [Compound 721], under 10 nM.

Turning to `O=C(COc1ccc(Cl)c(F)c1)NC12CCC(NC(=O)COc3ccc(Cl)c(F)c3)(CC1)C(NC1COC1)C2` (stereo not shown) [Compound 722, N,N′-{2-[(oxetan-3-yl)amino]bicyclo[2.2.2]octane-1,4-diyl}bis[2-(4-chloro-3-fluorophenoxy)acetamide]], the EC50 is under 10 nM.
